For 29 compounds, IC50 results are on record in patent US6881741B2 (ViroChem Pharma Inc., priority 2001, dated 2005).

The structures appear in SMILES notation.

Chain of recombinant HCV NS5B (HCV RNA-dependent RNA polymerase) (P26663 2420-3010 limits assumed): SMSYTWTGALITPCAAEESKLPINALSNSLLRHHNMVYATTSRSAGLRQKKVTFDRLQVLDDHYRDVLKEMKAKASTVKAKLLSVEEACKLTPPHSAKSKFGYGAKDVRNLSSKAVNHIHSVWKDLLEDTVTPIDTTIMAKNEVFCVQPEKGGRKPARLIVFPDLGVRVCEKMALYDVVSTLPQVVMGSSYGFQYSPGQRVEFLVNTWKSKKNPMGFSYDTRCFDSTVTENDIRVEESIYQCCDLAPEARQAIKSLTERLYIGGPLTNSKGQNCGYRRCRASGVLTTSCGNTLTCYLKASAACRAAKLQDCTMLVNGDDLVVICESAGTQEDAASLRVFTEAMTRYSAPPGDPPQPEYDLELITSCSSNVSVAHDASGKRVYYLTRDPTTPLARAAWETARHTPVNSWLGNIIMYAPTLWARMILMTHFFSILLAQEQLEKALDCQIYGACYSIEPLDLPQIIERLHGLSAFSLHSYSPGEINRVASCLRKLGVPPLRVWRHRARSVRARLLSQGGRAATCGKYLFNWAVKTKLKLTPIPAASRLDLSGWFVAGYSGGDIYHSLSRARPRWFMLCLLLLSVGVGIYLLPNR

The first assay concerns the target recombinant HCV NS5B (HCV RNA-dependent RNA polymerase) (Hepatitis C virus genotype 1b, UniProt P26663). Description: biochemical. To be noted: HCV polymerase activity, list of compounds of Example 27; read-out: IC50 (polymerase activity).
Broadly, the IC50 is the concentration that gives 50% inhibition. Turning to `CC1CCC(C(=O)N(c2cc(-c3ccccc3)sc2C(=O)O)C(C)C)C(O)C1` (centres unmarked) [Compound 409, 3-[(2-HYDROXY-4-METHYL- CYCLOHEXANECARBONYL)-ISOPROPYL- AMINO]-5-PHENYL-THIOPHENE-2- CARBOXYLIC ACID], the IC50 is below 5 µM.
Still for that read-out and setting: for `CC(C)C(=O)N(Cc1ccc(C(C)(C)C)cc1)c1cc(-c2ccccc2)sc1C(=O)O` [Compound 437, 3-[(4-TERT-BUTYL-BENZYL)- ISOBUTYRYL-AMINO]-5-PHENYL- THIOPHENE-2-CARBOXYLIC ACID] the value was 5 to 20 µM; for `O=C(O)c1sc(-c2ccccc2)cc1N(Cc1cccc(Cl)c1)C(=O)C1CCC1` [Compound 481, 3-[(3-CHLORO-BENZYL)- CYCLOBUTANECARBONYL-AMINO]-5- PHENYL-THIOPHENE-2-CARBOXYLIC ACID], 5 to 20 µM.
Still for that read-out and setting: in the case of `CCCC(=O)N(Cc1ccc(F)cc1F)c1cc(-c2ccccc2)sc1C(=O)O` [Compound 496, 3-[BUTYRYL-(2,4-DIFLUORO-BENZYL)- AMINO]-5-PHENYL-THIOPHENE-2- CARBOXYLIC ACID] it was below 5 µM; in that of `CC(C)N(C(=O)C1CC=CCC1)c1cc(-c2ccccc2)sc1C(=O)O` (centres unmarked) [Compound 530, 3-[(CYCLOHEX-3-ENECARBONYL)- ISOPROPYL-AMINO]-5-PHENYL- THIOPHENE-2-CARBOXYLIC ACID], 5 to 20 µM; in that of `COCC(=O)N(Cc1ccc(F)cc1F)c1cc(-c2ccccc2)sc1C(=O)O` [Compound 484, 3-[(2,4-DIFLUORO-BENZYL)-(2-METHOXY- ACETYL)-AMINO]-5-PHENYL-THIOPHENE- 2-CARBOXYLIC ACID], 5 to 20 µM.
On the same count and under the same terms, for `Cc1ccc(N(C)C(=O)c2cc(-c3ccccc3)sc2C(=O)O)cc1` [Compound 584, 3-(METHYL-P-TOLYL-CARBAMOYL)-5- PHENYL-THIOPHENE-2-CARBOXYLIC ACID] the value was 5 to 20 µM; for `CC(C)CC(=O)N(Cc1ccccc1)c1cc(-c2ccccc2)sc1C(=O)O` [Compound 453, 3-[BENZYL-(3-METHYL-BUTYRYL)- AMINO]-5-PHENYL-THIOPHENE-2- CARBOXYLIC ACID], below 5 µM; for `CC(C)N(C(=O)c1ccc(Cl)cc1Cl)c1c(C(=O)O)sc(-c2ccccc2)c1F` [Compound 542, 3-[(2,4-DICHLORO-BENZOYL)- ISOPROPYL-AMINO]-4-FLUORO-5- PHENYL-THIOPHENE-2-CARBOXYLIC ACID], 5 to 20 µM.
For the compound `C=CCN(C(=O)CCC(C)C)c1cc(-c2ccccc2)sc1C(=O)O` [Compound 400, 3-[ALLYL-(4-METHYL-PENTANOYL)- AMINO]-5-PHENYL-THIOPHENE-2- CARBOXYLIC ACID], the IC50 was 5 to 20 µM.

Still in this assay, the particulars now being: related polymerase activity (Example 27 list); read-out: IC50.
Consider `Cc1ccccc1S(=O)(=O)Nc1cc(-c2ccccc2F)sc1C(=O)O` [Compound 101, 5-(2-FLUORO-PHENYL)-3-(TOLUENE-2-SULFONYLAMINO)-THIOPHENE-2-CARBOXYLIC ACID], for which the IC50 is below 5 µM.
As for `C=Cc1cc(NS(=O)(=O)c2ccccc2C)c(C(=O)O)s1` [Compound 71, 3-(TOLUENE-2-SULFONYLAMINO)-5-VINYL-THIOPHENE-2-CARBOXYLIC ACID], the IC50 was in the range of 5 to 20 µM.
Turning to `Cc1ccccc1S(=O)(=O)Nc1cc(-c2cccc3cccnc23)sc1C(=O)O` [Compound 61, 5-QUINOLIN-8-YL-3-(TOLUENE-2-SULFONYLAMINO)-THIOPHENE-2-CARBOXYLIC ACID], the IC50 was above 20 µM.
The same measure, in the same setting: in the case of `O=C(O)c1sc(-c2ccccc2)cc1N(C(=O)c1ccc(Cl)cc1Cl)C1CCCC1` [Compound 201, 3-[CYCLOPENTYL-(2,4-DICHLORO-BENZOYL)-AMINO]-5-PHENYL-THIOPHENE-2-CARBOXYLIC ACID] it was below 5 µM.
Still for that read-out and setting: in the case of `C=CCN(C(=O)Cc1ccc(F)cc1F)c1cc(-c2ccccc2)sc1C(=O)O` [Compound 351, 3-{ALLYL-[2-(2,4-DIFLUORO-PHENYL)- ACETYL]-AMINO}-5-PHENYL-THIOPHENE- 2-CARBOXYLIC ACID] it was 5 to 20 µM; in that of `O=C(O)c1sc(-c2ccccc2)cc1NS(=O)(=O)c1ccc(F)c(F)c1F` [Compound 222, 5-PHENYL-3-(2,3,4-TRIFLUORO-BENZENESULFONYLAMINO)-THIOPHENE-2-CARBOXYLIC ACID], 5 to 20 µM; in that of `Cc1ccc(-c2cc(NS(=O)(=O)c3ccccc3C)c(C(=O)O)s2)nc1` [Compound 184, 5-(5-METHYL-PYRIDIN-2-YL)-3-(TOLUENE-2-SULFONYLAMINO)-THIOPHENE-2-CARBOXYLIC ACID], below 5 µM.
The same measure, in the same setting: in the case of `Cc1ccc(C(=O)N(C)c2cc(-c3cccc(C(F)(F)F)c3)sc2C(=O)O)cc1` [Compound 274, 3-[METHYL-(4-METHYL-BENZOYL)-AMINO]-5-(3-TRIFLUOROMETHYL-PHENYL)-THIOPHENE-2-CARBOXYLIC ACID] it was below 5 µM; in that of `Cc1ccc(C(=O)N(C)c2cc(-c3ccc(N)cc3)sc2C(=O)O)cc1` [Compound 200, 5-(4-AMINO-PHENYL)-3-[METHYL-(4-METHYL-BENZOYL)-AMINO]-THIOPHENE-2-CARBOXYLIC ACID], 5 to 20 µM.
Turning to `Cc1ccccc1S(=O)(=O)Nc1cc(-c2cccc(Cl)c2)sc1C(=O)O` [Compound 65, 5-(3-CHLORO-PHENYL)-3-(TOLUENE-2-SULFONYLAMINO)-THIOPHENE-2-CARBOXYLIC ACID], the IC50 is below 5 µM.
On the same count and under the same terms, in the case of `O=C(O)c1sc(-c2ccccc2)cc1NS(=O)(=O)c1ccccc1OC(F)(F)F` [Compound 31, 5-PHENYL-3-(2-TRIFLUOROMETHOXY-BENZENESULFONYLAMINO)-THIOPHENE-2-CARBOXYLIC ACID] it was above 20 µM; in that of `Cc1ccc(S(=O)(=O)Nc2cc(-c3ccccc3)sc2C(=O)O)c([N+](=O)[O-])c1` [Compound 177, 3-(4-METHYL-2-NITRO-BENZENESULFONYLAMINO)-5-PHENYL-THIOPHENE-2-CARBOXYLIC ACID], 5 to 20 µM.
For `O=C(O)c1sc(-c2ccccc2)cc1NC(=O)N1CCc2ccccc2C1` [Compound 180, 3-[(3,4-DIHYDRO-1H-ISOQUINOLINE-2-CARBONYL)-AMINO]-5-PHENYL-THIOPHENE-2-CARBOXYLIC ACID], the IC50 lay within 5 to 20 µM.
`COc1ccc(-c2cc(N(C)C(=O)c3ccc(C)cc3)c(C(=O)O)s2)cc1` [Compound 198, 5-(4-METHOXY-PHENYL)-3-[METHYL-(4-METHYL-BENZOYL)-AMINO]-THIOPHENE-2-CARBOXYLIC ACID]: the IC50 lay in the range of 5 to 20 µM.
Turning to `Cc1ccccc1C(=O)N(C)c1cc(-c2ccccc2)sc1C(=O)O` [Compound 97, 3-[METHYL-(2-METHYL-BENZOYL)-AMINO]-5-PHENYL-THIOPHENE-2-CARBOXYLIC ACID], the IC50 was above 20 µM.
Same read-out and setting: in the case of `Cc1ccc(C(=O)N(C)c2cc(-c3cccc(C#N)c3)sc2C(=O)O)cc1` [Compound 206, 5-(3-CYANO-PHENYL)-3-[METHYL-(4-METHYL-BENZOYL)-AMINO]-THIOPHENE-2-CARBOXYLIC ACID] it was below 5 µM.
The same measure, in the same setting: in the case of `Cc1ccccc1S(=O)(=O)Nc1cc(-c2nccs2)sc1C(=O)O` [Compound 178, 5-THIAZOL-2-YL-3-(TOLUENE-2-SULFONYLAMINO)-THIOPHENE-2-CARBOXYLIC ACID] it was below 5 µM; in that of `Cc1cc(Cl)ccc1S(=O)(=O)Nc1cc(-c2ccccc2)sc1C(=O)O` [Compound 372, 3-(4-CHLORO-2-METHYL- BENZENESULFONYLAMINO)-5-PHENYL- THIOPHENE-2-CARBOXYLIC ACID], below 5 µM.
Turning to `C=CCCC(=O)N(C)c1cc(-c2ccccc2)sc1C(=O)O` [Compound 386, 3-(METHYL-PENT-4-ENOYL-AMINO)-5- PHENYL-THIOPHENE-2-CARBOXYLIC ACID], the IC50 is 5 to 20 µM.
